Results: US9688689B2, “Compounds and compositions for inducing chondrogenesis” (Novartis AG, priority 2014, dated 2017)
pIC50: −log10 of the molar value.

Test system: Primary articular chondrocytes from normal bovine knees
Test: NO Release Assay in Bovine Chondrocytes (inhibition of cytokine induced NO release, Greiss reagent)
Type: cell-based
Settings: Bos taurus, Chondrocyte; 20 ng/ml TNFα and 10 ng/ml human oncostatin M, 48 hours; read-out: NO Inh. IC50
Procedure: The compounds of the present invention were evaluated in two functional assays to assess their chondrogenesis activities (Type II Collagen Expression) and chondrocyte protective activities (NO release assay).
The assay was described in Johnson, K., et al., (2012) Science 336, 717-721. Chondrocytes release NO during OA pathogenesis. This assay measures the inhibition of nitric oxide release by the treated compound (an indicator of chondro-protection) Primary articular chondrocytes from normal bovine knees (Animal Technologies, Tyler, Tex.) were isolated after dissection and collagenase digestion (Worthington Biochemical) of the tibial plateau and femoral condyle articular cartilage. The cells were initially plated at 80-90% confluency after isolation. Primary chondrocytes were cultured in high-glucose Dulbecco's modified Eagle's medium (DMEM) supplemented with 10% fetal bovine serum (FBS), 1% L-glutamine, 100 units/ml of penicillin, and 50 μg/ml of streptomycin (Life Technologies, Carlsbad, Calif.) and maintained at 37° C. in the presence of 5% CO2 for 7 days prior to initiation of each experiment. During the 7-day culture period, the cells adhered and established a chondrocyte-like appearance that was maintained throughout the experimental period. Functional studies on chondrocytes were performed in high-glucose DMEM with no FBS unless indicated otherwise.
After one week of culture, 8500 cells were plated per well in Greiner 384 well white clear bottom plates in growth media. Following 24 hours of culture, the media was removed and replaced with serum free DMEM containing 20 ng/ml TNFα and 10 ng/ml human oncostatin M (inflammatory mediators). […] 20 μl of the supernatant was mixed with 20 μl of the Greiss reagent (Promega # G2930) and quantitated at 540 nm. The Greiss reagent part A (1% Sulfanilamide in 5% phosphoric acid) was mixed at a 1:1 ration with Greiss reagent part B (0.1% N-1-napthylethylenediamine dihydrochloride in water) immediately prior to added to the culture supernatant.

Q: With `O=C(Nc1ccc(Cl)c(Cl)c1)[C@@H]1[C@@H](c2ccncc2)[C@@H]2CC[C@H]1O2` (single isomer, unassigned) [Compound 71] as the molecule, how does the pIC50 read?
A: < 4.54

Q: How did the pIC50 turn out when `O=C(Nc1ccc(Cl)c(Cl)c1)[C@H]1[C@H](c2ccncc2)[C@H]2CC[C@@H]1O2` (single isomer, unassigned) [Compound 103] was run?
A: < 4.54

Q: `Nc1cc([C@@H]2[C@@H](C(=O)Nc3ccc(Cl)c(Cl)c3)[C@H]3CC[C@@H]2O3)ccn1` (single isomer, unassigned) [Compound 107] was tested. Which pIC50 did it give?
A: < 4.48

Q: With `Nc1cc([C@@H]2[C@H](C(=O)Nc3ccc(Cl)c(Cl)c3)[C@H]3CC[C@@H]2O3)ccn1` (single isomer, unassigned) [Compound 115] as the molecule, how does the pIC50 read?
A: 4.59

Q: How did the pIC50 turn out when `CCOC(=O)c1ccccc1NC(=O)[C@H]1[C@@H](c2nc(-c3ccc(Cl)cc3)no2)[C@@H]2CC[C@H]1O2` [Compound 2] was run?
A: < 4.52

Q: How did the pIC50 turn out when `Nc1cc([C@@H]2[C@@H](C(=O)Nc3ccc(Cl)c(Cl)c3)[C@H]3CC[C@@H]2O3)ccn1` [Compound 5] was run?
A: 4.80

Q: How did the pIC50 turn out when `O=C(Nc1ccc(Cl)c(Cl)c1)[C@@H]1[C@H](c2ccncc2)[C@H]2CC[C@@H]1O2` [Compound 8] was run?
A: < 4.48

Q: How did the pIC50 turn out when `COC(=O)c1cc(-c2ccccc2)ccc1NC(=O)[C@H]1[C@@H](c2nc(-c3ccc(Cl)cc3)no2)[C@@H]2CC[C@H]1O2` [Compound 9] was run?
A: < 4.95

Q: With `Nc1cc([C@H]2[C@H](C(=O)Nc3ccc(Cl)c(Cl)c3)[C@@H]3CC[C@H]2O3)ccn1` [Compound 10] as the molecule, how does the pIC50 read?
A: 4.66

Q: With `O=C(Nc1ccc(Cl)c(Cl)c1)[C@H]1[C@@H](c2ccncc2)[C@@H]2CC[C@H]1O2` [Compound 11] as the molecule, how does the pIC50 read?
A: < 4.48

Q: How did the pIC50 turn out when `CCOC(=O)c1ccc(NC(=O)[C@H]2[C@@H](c3nc(-c4ccc(Cl)cc4)no3)[C@@H]3CC[C@H]2O3)cc1` [Compound 17] was run?
A: < 4.95

Q: How did the pIC50 turn out when `O=C(Nc1ccc(Cl)c(F)c1)[C@@H]1[C@H](c2ccncc2)[C@@H]2CC[C@H]1O2` [Compound 18] was run?
A: < 4.48

Q: With `N#Cc1cc([C@H]2[C@@H](C(=O)Nc3ccc(-c4ccccc4F)c(F)c3)[C@H]3CC[C@@H]2O3)ccn1` [Compound 20] as the molecule, how does the pIC50 read?
A: < 4.48

Q: How did the pIC50 turn out when `COC(=O)c1cc(Cl)ccc1NC(=O)[C@H]1[C@H](c2ccncc2)[C@@H]2CC[C@H]1O2` [Compound 24] was run?
A: < 4.48

Q: With `O=C(Nc1ccc(-c2ccccc2Cl)c(F)c1)[C@H]1[C@H](c2ccncc2)[C@@H]2CC[C@H]1O2` [Compound 26] as the molecule, how does the pIC50 read?
A: < 5.47

Q: `O=C(Nc1ccc(-c2ccccc2F)c(Cl)c1)[C@@H]1C(c2cccc(C(F)(F)F)n2)[C@@H]2CC[C@H]1O2` (stereo partly drawn) [Compound 27] was tested. Which pIC50 did it give?
A: < 4.48

Q: With `O=C(Nc1ccc(-c2ccccc2Cl)c(F)c1)C1=C(c2ccnn2C2CCOCC2)[C@@H]2CCC1O2` [Compound 31] as the molecule, how does the pIC50 read?
A: < 4.48

Q: How did the pIC50 turn out when `Cc1cc(C2=C(C(=O)Nc3ccc(-c4ccccc4F)c(F)c3)C3CC[C@@H]2O3)ccn1` [Compound 32] was run?
A: < 4.57

Q: `O=C(Nc1ccc(Cl)c(F)c1)[C@H]1[C@H](c2ccncc2)[C@@H]2CC[C@H]1O2` [Compound 33] was tested. Which pIC50 did it give?
A: < 4.48

Q: With `O=C(Nc1cnc(-c2ccccc2)nc1)C1=C(c2ccncc2)C2CCC1O2` (stereo not drawn) [Compound 38] as the molecule, how does the pIC50 read?
A: < 4.48

Q: `O=C(Nc1ccc(-c2ccccc2)c(Cl)c1)[C@H]1[C@H](c2ccncc2)[C@@H]2CC[C@H]1O2` [Compound 39] was tested. Which pIC50 did it give?
A: < 4.48

Q: `O=C(Nc1cccc(Cl)c1F)[C@H]1[C@H](c2ccncc2)[C@@H]2CC[C@H]1O2` [Compound 41] was tested. Which pIC50 did it give?
A: < 4.48

Q: With `CCOC(=O)c1ccc(NC(=O)C2=C(c3cccc(C(F)(F)F)n3)[C@@H]3CCC2O3)cc1F` [Compound 43] as the molecule, how does the pIC50 read?
A: < 4.48

Q: With `O=C(Nc1ccc(-c2ccccc2F)c(F)c1)C1=C(c2ccnc(Cl)c2)[C@@H]2CCC1O2` [Compound 44] as the molecule, how does the pIC50 read?
A: 4.55

Q: How did the pIC50 turn out when `O=C(Nc1ccc(-c2ccccc2)c(Cl)c1)C1=C(c2ccn[nH]2)[C@@H]2CC[C@H]1O2` [Compound 47] was run?
A: 4.74

Q: How did the pIC50 turn out when `Nc1cc(C2=C(C(=O)Nc3ccc(-c4ccccc4F)c(F)c3)C3CC[C@@H]2O3)ccn1` [Compound 49] was run?
A: < 4.48

Q: With `O=C(Nc1ccc(-c2ccccc2)c(Cl)c1)C1=C(c2ccnn2C2CCOCC2)[C@@H]2CCC1O2` [Compound 50] as the molecule, how does the pIC50 read?
A: 4.85

Q: How did the pIC50 turn out when `O=C(Nc1cccc(OC(F)(F)F)c1F)C1=C(c2ccncc2)[C@@H]2CCC1O2` [Compound 51] was run?
A: 4.59

Q: With `O=C(Nc1ccc(-c2ccccc2F)c(F)c1)[C@H]1[C@H](c2ccncc2)[C@@H]2CC[C@H]1O2` [Compound 52] as the molecule, how does the pIC50 read?
A: < 4.48

Q: With `COC(=O)c1cc(Cl)ccc1NC(=O)C1=C(c2ccncc2)[C@@H]2CCC1O2` [Compound 54] as the molecule, how does the pIC50 read?
A: < 4.48

Q: `N#Cc1cc(C2=C(C(=O)Nc3ccc(-c4ccccc4F)c(F)c3)C3CC[C@@H]2O3)ccn1` [Compound 56] was tested. Which pIC50 did it give?
A: < 4.48

Q: How did the pIC50 turn out when `Cc1cc(NC(=O)C2=C(c3ccncc3)[C@@H]3CCC2O3)nn1-c1ccccc1` [Compound 61] was run?
A: < 4.48

Q: `O=C(Nc1ccc(-c2ccccc2F)c(F)c1)C1=C(c2ccnn2C2CCOCC2)C2CCC1O2` (stereo not drawn) [Compound 62] was tested. Which pIC50 did it give?
A: 4.82

Q: `Nc1cc([C@H]2[C@@H](C(=O)Nc3ccc(-c4ccccc4F)c(F)c3)[C@H]3CC[C@@H]2O3)ccn1` [Compound 64] was tested. Which pIC50 did it give?
A: < 4.48

Q: With `Cn1cc2cc([C@H]3[C@@H](C(=O)Nc4ccc(-c5ccccc5F)c(F)c4)[C@H]4CC[C@@H]3O4)ccc2n1` [Compound 65] as the molecule, how does the pIC50 read?
A: < 4.48

Q: With `CCOC(=O)c1ccc(NC(=O)C2=C(c3ccncc3)C3CCC2O3)cc1F` (stereo not drawn) [Compound 67] as the molecule, how does the pIC50 read?
A: < 4.48

Q: How did the pIC50 turn out when `Cc1cc([C@@H]2[C@@H](C(=O)Nc3ccc(Cl)c(Cl)c3)[C@H]3CC[C@@H]2O3)ccn1` [Compound 69] was run?
A: 4.68

Q: With `O=C(Nc1ccc(-c2ccc(F)cc2F)c(F)c1)[C@H]1[C@H](c2ccncc2)[C@@H]2CC[C@H]1O2` [Compound 70] as the molecule, how does the pIC50 read?
A: < 4.48

Q: With `O=C(Nc1ccc(-c2ccccc2)cc1)[C@@H]1[C@H](c2ccncc2)[C@@H]2CC[C@H]1O2` [Compound 74] as the molecule, how does the pIC50 read?
A: < 4.48

Q: `O=C(Nc1ccc(-c2ccccc2Cl)c(F)c1)[C@@H]1[C@@H](c2ccncc2)[C@@H]2CC[C@H]1O2` [Compound 76] was tested. Which pIC50 did it give?
A: < 4.48

Q: With `CN(C)c1ncc([C@H]2[C@@H](C(=O)Nc3ccc(-c4ccccc4F)c(F)c3)[C@H]3CC[C@@H]2O3)cn1` [Compound 78] as the molecule, how does the pIC50 read?
A: 6.62

Q: How did the pIC50 turn out when `O=C(Nc1ccc(-c2ccccc2F)c(F)c1)[C@@H]1[C@@H](c2ccccn2)[C@@H]2CC[C@H]1O2` [Compound 80] was run?
A: < 4.77

Q: How did the pIC50 turn out when `O=C(Nc1ccc(-c2ccccc2)c(Cl)c1)[C@@H]1[C@@H](c2cccc(C(F)(F)F)n2)[C@@H]2CC[C@H]1O2` [Compound 83] was run?
A: < 4.48

Q: How did the pIC50 turn out when `O=C(Nc1ccc(-c2ccccc2F)c(F)c1)[C@@H]1[C@@H](c2cccc(C(F)(F)F)n2)[C@@H]2CC[C@H]1O2` [Compound 86] was run?
A: < 4.48

Q: `O=C(Nc1ccc(-c2ccccc2F)c(F)c1)[C@@H]1[C@H](c2cc(Cl)nc(Cl)c2)[C@@H]2CC[C@H]1O2` [Compound 87] was tested. Which pIC50 did it give?
A: < 4.48

Q: With `Cn1nc(C(F)(F)F)cc1[C@@H]1[C@@H](C(=O)Nc2ccc(Cl)c(Cl)c2)[C@H]2CC[C@@H]1O2` [Compound 89] as the molecule, how does the pIC50 read?
A: < 4.48

Q: `O=C(Nc1ccc(Cl)c(Cl)c1)[C@@H]1[C@@H](c2cccc(C(F)(F)F)n2)[C@@H]2CC[C@H]1O2` [Compound 92] was tested. Which pIC50 did it give?
A: < 4.48

Q: How did the pIC50 turn out when `C[C@]12CC[C@](C)(O1)[C@@H](c1ccncc1)[C@H]2C(=O)Nc1ccc(-c2ccccc2F)c(F)c1` [Compound 93] was run?
A: < 4.48

Q: `O=C(Nc1ccc(-c2ccccc2F)c(F)c1)[C@@H]1[C@H](c2ccnc(F)c2Cl)[C@@H]2CC[C@H]1O2` [Compound 95] was tested. Which pIC50 did it give?
A: 6.74

Q: With `O=C(Nc1ccc(-c2ccccc2F)c(F)c1)C1=C(c2ccnc(F)c2Cl)[C@@H]2CCC1O2` [Compound 97] as the molecule, how does the pIC50 read?
A: 4.65

Q: With `O=C(Nc1ccc(-c2ccccc2)c(Cl)c1)[C@@H]1[C@@H](c2ccncc2)[C@@H]2CC[C@H]1O2` [Compound 98] as the molecule, how does the pIC50 read?
A: < 4.48

Q: `O=C(Nc1ccc(-c2ccccc2)c(Cl)c1)[C@H]1[C@@H](c2ccncc2)[C@@H]2CC[C@H]1O2` [Compound 104] was tested. Which pIC50 did it give?
A: < 4.48

Q: How did the pIC50 turn out when `O=C(Nc1ccc(-c2ccccc2F)c(F)c1)C1=C(c2ccncc2F)[C@@H]2CCC1O2` [Compound 109] was run?
A: < 4.48

Q: How did the pIC50 turn out when `O=C(Nc1ccc(-c2ccc(F)cc2F)c(F)c1)[C@@H]1[C@@H](c2ccncc2)[C@@H]2CC[C@H]1O2` [Compound 111] was run?
A: < 4.48

Q: `O=C(Nc1ccc(-c2ccccc2F)c(F)c1)C1=C(c2cc(Cl)nc(Cl)c2)[C@@H]2CC[C@H]1O2` [Compound 116] was tested. Which pIC50 did it give?
A: 6.92

Q: `O=C(Nc1ccc(Cl)c(Cl)c1)[C@@H]1[C@@H](c2ccncc2)[C@@H]2CC[C@H]1O2` [Compound 118, (1R,2R,3S,4S)—N-(3,4-dichlorophenyl)-3-(pyridin-4-yl)-7-oxabicyclo[2.2.1]heptane-2-carboxamide] was tested. Which pIC50 did it give?
A: < 4.48

Q: `O=C(Nc1ccc(-c2ccccc2)cc1)[C@H]1[C@@H](c2cccnc2)[C@H]2CC[C@@H]1O2` [Compound 121] was tested. Which pIC50 did it give?
A: < 4.64

Q: How did the pIC50 turn out when `Cn1ccc([C@@H]2[C@H](C(=O)Nc3ccc(-c4ccccc4)cc3)[C@@H]3CC[C@H]2O3)n1` [Compound 122] was run?
A: < 4.48

Q: With `O=C(Nc1ccc(-c2ccccc2Cl)c(F)c1)[C@H]1[C@@H](c2cccc(C(F)(F)F)n2)[C@H]2CC[C@@H]1O2` [Compound 123] as the molecule, how does the pIC50 read?
A: < 4.96

Q: With `CCOC(=O)c1ccc(NC(=O)C2=C(c3cccc(C(F)(F)F)n3)[C@@H]3CCC2O3)cc1` [Compound 129] as the molecule, how does the pIC50 read?
A: < 4.48
